Marks after values point to notes of the source that are not given here.
System: C. tropicalis strain H5343
Test: Toxicity tests of substrates (growth by absorbance at 600 nm, streak plates)
Assay type: cell-based
Conditions: for ABS 600.0 nm: 48 h, 30° C., dilution in YPD 1:100
Protocol: The toxicity test used here was similar to that used for the solvents described in Example 1. The goal was to determine the highest concentration at which a substrate could be added to a culture broth without being toxic, inhibiting growth, or interfering with the bioconversion process. C. tropicalis strain H5343 was grown in the presence of the substrate at different concentrations and growth was monitored spectrophotometrically. In order to determine if the substrate was lethal or was simply inhibiting growth, the cultures were examined under the microscope and streak plates of YPD and LB agar were prepared. Contamination of the culture with an unwanted organism could also be detected using this approach.
6 ml was transferred to the first tube and 3 ml to the rest. 1% substrate was added to the first tube and then serially diluted to give concentrations from 1% to 0.015%. Since the last tube was initially empty, the concentration in the last two tubes was the same. […] As a growth-control one culture without substrate was inoculated.
To determine if contamination had occurred, each culture was examined under the microscope and streak plates of both YPD and LB were made from the 1% and the inoculated 0.015% tube.

[1] = substrate concentration 0.01563%
[2] = substrate concentration 0.0313%

Row | Structure (SMILES) | ABS 600.0 nm [1] | ABS 600.0 nm [2] | ABS 600.0 nm (substrate concentration 0.063%) | ABS 600.0 nm (substrate concentration 0.13%) | ABS 600.0 nm (substrate concentration 0.25%) | ABS 600.0 nm (substrate concentration 0.5%) | ABS 600.0 nm (substrate concentration 1%) | Toxic at (concentration) (Phase I screening summary)
1 | CCCCCCCCCCCCO [1-Dodecanol] | 0.000 | 0.000 | 0.000 | 0.004 | 0.032** | 0.013** | 0.267** | 
2 | CCCCC(CC)C(=O)O (centres unmarked) [2-Ethylhexanoic acid] | 0.099 | 0.051 | 0.000 | 0.000 | 0.000 | 0.000 | 0.000 | 
3 | CCCCCCCCCC(CCCCCCC)C(=O)O (centres unmarked) [2-Heptylundecanoic acid] | 0.082 | 0.077 | 0.077 | 0.043 |  | 0.048 | 0.268 | 
4 | CCCCCC#CCCCCC [6-Dodecyne] | 0.125 | 0.083 | 0.074 | 0.071 | 0.073 | 0.071 | 0.066 | 
5 | CCCCCC(O)CCCCC [6-Undecanol] | 0.000** | 0.000** | 0.000** | 0.000** | 0.000** | 0.000** | 0.000** | 
6 | CCCCCCCCC(=O)CCCCCCCC [9-Heptadecanone] | 0.100 | 0.120 | 0.064 | 0.103 | 0.120 | 0.073 | 0.004** | 
7 | CCCCCCC(O)CCCCCCCCCCC(=O)O (centres unmarked) [12-Hydroxystearic acid] |  |  |  |  |  |  | 0.120 | 
8 | C=CCCCCCCCCCC [C12 a-Olefin] | 0.077 | 0.119 | 0.119 | 0.082 | 0.080 | 0.080 | 0.082 | 
9 | C=CCCCCCCCCCCCC [C14 a-Olefin, 1-tetradecene] | 0.061 | 0.084 | 0.085 | 0.097 | 0.115 | 0.084 | 0.087 | 
10 | C=CCCCCCCCCCC [Dodecene] | 0.088 | 0.055 | 0.079 | 0.050 | 0.053 | 0.032 | 0.026 | 
11 | CCCCCCCCCCCCN [Dodecyclamine, Dodecylamine] | 0.000 | 0.000 | 0.000 | 0.000 | 0.000 | 0.000 | 0.000 | Toxic at 0.01%
12 | CCCCCCCC/C=C\CCCCCCCCO [HD-Ocenol, oleyl alcohol] | 0.093 | 0.087 | 0.076 | 0.115 | 0.097 | 0.085 | 0.087 | 
13 | CCCCCCCCCCCCCCCCOC(C)=O [Hexadecyl acetate] | 0.110 | 0.104 | 0.089 | 0.083 | 0.110 | 0.103 | 0.155 | 
14 | CCCCCCCCCCCCCCCCOC(=O)CCCCCCCC [Hexadecyl pelargonate] | 0.112 | 0.095 | 0.075 | 0.083 | 0.103 | 0.102 | 0.080 | 

— patent US7405063B2, “Biooxidation capabilities of Candida sp” (Cognis Corporation, priority 2000, dated 2008)
